Laboratory results taken from patent US20020168327A1, “Treatment of dandruff” (Unilever Home & Personal Care USA, Division of Conopco, Inc., priority 2001, published 2002).
Where “and” joins values, the source holds several entries; their conditions need not be identical. Equal entries are not always repeated.

What was measured:
[1] = In vitro skin penetration study, Franz diffusion cells, radiolabelled shampoo; format: in vitro ADME, human; settings: 6-fold diluted shampoo, one minute contact then washed off; 3H label; p<0.05
Experimental: Radiolabelled formulations were prepared using formulations spiked with either ^3H Lysine or ^3H glyceryl trioleate in sunflower seed oil. The total balance of each nutrient was brought up to 0.01% by weight using non-labelled cold material. Excised human full thickness skin was obtained and placed in between the two compartments of Franz diffusion cells. The skin is maintained by filling the receptor chamber of the cell with phosphate buffered saline with the cells placed in a water bath at 37° C. to maintain a surface skin tissue of about 32° C. […] The experimental procedure was as follows:
6-fold diluted shampoo was applied to the skin, left for one minute and washed off. The skin was then separated into 3:
remainder of the epidermis (viable) is then removed using heat separation (identified as the epidermal section)
Each of these layers was analysed for radioactivity and the amount of material penetrated calculated.
Using the in-vitro skin penetration studies, the amount of penetrated material can be quantified as a snap shot in time. From the skin sectioning process, the location of the penetrant at the particular point in time can be measured.

[2] = system: ceramide levels in stratum corneum; assay: Ceramide production in skin: test products applied to the volar forearm for four weeks, stratum corneum tape stripping; format: in vivo, human; settings: responder subset of subjects; 1.0% of each active in ethanol/propylene glycol; twice daily for four weeks on volar forearm
Experimental: Tests on the ability of compositions to increase ceramide production in skin were carried out. The formulation pairs tested were: 1.0% tetraacetyl phytosphingosine (TAPS) vs Vehicle 1.0% TAPS+1.0% juniperic acid+1.0% linoleic acid vs Vehicle. Vehicle=ethanol/propylene glycol (1:1) plus 0.2% by weight Glydant Plus™. […] The studies were conducted as double-blind paired comparisons, with treatment assignments randomized. Subjects first completed a four-day washout phase. During the four-week application phase, test products were applied twice daily to the volar surface of the forearms, using dropper bottles to deliver 0.1 ml of test product to each site; each subject applied a test formulation to one site and the vehicle formulation to the adjacent site. After four weeks of application, samples of stratum corneum were obtained by tape stripping. A subset of subjects who responded to the treatments as expected, with a significant increase in ceramide levels, data from subjects showing increased ceramides was broken out. In each case, responder subjects represented a cross-section of the whole panel; they were not predominantly of one sex or age group. […] Increases were seen across all ceramide types. The increases for ceramides 1 and 2 were dramatically higher than for the other ceramide types.

Compound	skin penetration (skin layers reached) [1]	mean increase in ceramide levels compared with vehicle [2]
NCCCC[C@H](N)C(=O)O [lysine]	penetrate not only into the stratum corneum but also deeper into the epidermis and dermis	–
tetraacetyl phytosphingosine [TAPS]	–	30% and 25%
